In paper PMC3875372 (Biochemistry, 2013):

What was measured:
[1] = test system: ecDHFR; settings: cited from earlier work
[2] = standards; 2-aminopyridine λex 295 nm, anthracene λex 340 nm; cited from earlier work
[3] = test system: modified DHFRs (biphenyl-phenylalanines at position 115); assay: Inhibition of the modified DHFRs; format: biochemical, E. coli; settings: all four DHFRs modified at position 115

In the case of 4-biphenyl-L-phenylalanine, the “effect on the rate at which ecDHFR consumed NADPH” value ([1]; replacement of Ile115, in the presence of dihydrofolate) is listed as “no significant effect”.

In the case of `Nc1ccccn1` [2-aminopyridine], the “ΦF of quantum yield standard” value [2] is listed as 0.60.

For `c1ccc2cc3ccccc3cc2c1` [anthracene], the “ΦF of quantum yield standard” value [2] is given as 0.27.

For `CN(Cc1cnc2nc(N)nc(N)c2n1)c1ccc(C(=O)N[C@@H](CCC(=O)O)C(=O)O)cc1` [methotrexate], the “inhibition of the modified enzymes compared with wild type” value [3] was “about the same extent as wild type”.

In the case of L-(7-hydroxycoumarin-4-yl)ethylglycine, the “rate of NADPH consumption relative to wild type” value ([1]; position 115 of ecDHFR) is listed as “about 25%”.
